Experimental findings from a melting point compilation (Tetko et al.; mined from patent text by program, amines drawn as free bases though some values may be those of a salt) are described below.

The structures appear in SMILES notation.

As to `CCc1cn(C2CC(O)C(CO)O2)c(=O)nc1NC(=O)c1ccccc1` (configuration not stated), the melting point – broadly, the temperature of the solid-liquid transition – is 172 to 174 °C.
In turn, `O=S(=O)(CC1(c2ccccc2)CO1)c1ccccc1` (configuration not stated) registered a melting point of 89 °C.
Compound `c1ccc(Oc2ccncc2)cc1` had a melting point of 46 to 49 °C.
As for `CC1Oc2ccc(CN3CCN(c4nc5c(c(=O)n(C)c(=O)n5C)n4C)CC3)cc2NC1=O` (configuration not stated), the melting point was in the range of 130 to 138 °C.
To `O=C(CCCC1CCCCC1)N[C@H]1CO[C@H]2[C@@H]1OC[C@@H]2NC(=O)C1CC1` belongs 182 °C; to `NC(=O)C1CCc2[nH]c3ccc(F)c(Cl)c3c2C1` (configuration not stated), 226 to 227 °C.
Turning to `CN1CCC(=C2c3ccsc3C(=O)Cn3ccnc32)CC1`, the melting point is 153 °C.
The compound `COc1cc(C=O)cc(OC)c1Cl` returned a melting point of 112 to 113 °C.
With `COc1cccc(OCCO)c1-c1ccc(C[C@H](NC(=O)c2c(Cl)cccc2Cl)C(=O)O)cc1` the figure was 158 to 159 °C; with `COc1c(N2CC3CC3(CN)C2)c(F)cc2c(=O)c(C(=O)O)cn(C3CC3)c12` (configuration not stated), 194 to 196 °C; with `COCCn1c(C)c(C(=O)c2c(Cl)c(Cl)c(Cl)c(Cl)c2C(=O)O)c2ccccc21`, 182 to 184 °C.
In turn, `C=CCc1cc2c(C)c(Br)c(=O)oc2c(C)c1O` yielded a melting point of 189 to 190 °C.
With `O=c1c(Cl)nc2cccnc2n1-c1ccc(Cl)cc1` the figure was over 300 °C.
To `O=C(CCSC(=S)Nc1ccc(Cl)cn1)c1ccccc1` belongs 159 °C.
Take `Cc1cc(F)ccc1NC(=O)c1cc([N+](=O)[O-])ccc1NC(=O)CF`: the melting point was in the range of 237 to 239 °C.
Compound `CCN(CC)CC(O)CNC(=O)c1c(OCc2ccccc2)c2ccccc2n1-c1ccccc1` (configuration not stated) gave a melting point of 80 to 81 °C.
Consider `O=C1CC2=C(CCN1)c1ccccc1Sc1ccccc12`, for which the melting point was in the range of 195 to 198 °C.
The compound `O=C(c1ccc([N+](=O)[O-])cc1)N1Cc2ccccc2C(c2ccccc2Cl)c2ccccc21` (configuration not stated) showed a melting point of 178 to 181 °C.
`CCCc1nc2c(N)nc(C)c(C)c2n1CC1(O)CCC1` gave a melting point of 180 to 181 °C.
`COc1cc2c(cc1[N+](=O)[O-])N(CC(=O)N(C)C)C(=O)CN(CC(=O)N(C)C)C2` gave a melting point of 98 °C.
`CN1COCNC1=N[N+](=O)[O-]` showed a melting point of 137 to 139 °C.
To `OC1CCCC2Oc3ccccc3OC12` (configuration not stated) belongs 81 to 82 °C; to `CC(C)CC(O)(Cn1ccnn1)c1ccccc1` (configuration not stated), 94 to 95 °C.
As to `N#CN=C(Nc1cccnc1)NC1(c2ccccc2)CC=CC1`, the melting point lay in the range of 285 to 288 °C.
To `Cc1ccc2nc(-c3ccccc3)c(-c3ccccc3)nc2c1` belongs 114 to 116 °C; to `CSc1cc(C)nc(O)n1`, 165 °C.
With `Cc1cccc(N2CCN(c3ccc(Oc4ccccc4)nn3)CC2)c1` the figure was 123 °C; with `O=C1CCCC2=C1C(c1ccncc1)C1=C(CCS1)N2` (configuration not stated), over 250 °C.
`Cc1c(C(=O)Nc2ccc(OC3CCN(Cc4ccccc4)CC3)c(C#N)c2)cnn1-c1ccc(Cl)cc1` came in with a melting point of 194 °C.
For `O=Cc1ccc2c(c1)S(=O)(=O)c1ccccc1C=C2`, the melting point lay within 167 to 171 °C.
With `O=C(O)c1ccc2c(c1)Cc1cccnc1O2`, the melting point is 285 to 286 °C.
The compound `CN1CCC(Oc2c(F)cc3c(=O)c(C(=O)O)cn(C4CC4)c3c2F)CC1` had a melting point of 166 to 167 °C.
For `CCc1ccc2c(c1)C1(CCN(C(=O)Nc3cnc(-c4ccccc4)cn3)CC1)OC2=O`, the melting point was in the range of 176 to 178 °C.
As for `Cc1nc(-c2ccc(Br)c(C)c2)no1`, the melting point was 78 °C.
The compound `COc1cccc(N2CCC(C(N)=O)CC2)c1` came in with a melting point of 153 to 156 °C.
The compound `CCc1cc(NC(=O)N2CCc3cc(OC)c(C(F)(F)F)cc32)cc(-c2cccnc2)c1` displayed a melting point of 205 to 207 °C.
To `Cc1cc(Cl)ncc1C(=O)Nc1ccc2c(c1)-c1c(c(C(N)=O)nn1-c1ccc(F)cc1)CC2` belongs 280 to 284 °C.
The compound `COC(=O)c1sccc1COC(C)=O` came in with a melting point of 42 to 43 °C.
In turn, `COc1ccc(S(=O)(=O)C(CC=C(C)C)(CC=C(C)C)C(=O)NO)cc1` gave a melting point of 93 to 96 °C.
Take `CCOc1nn(-c2ccc(C(F)(F)F)cn2)cc1CCCOc1ccc(CCC(=O)O)cc1O`: the melting point is 124 to 125 °C.
In turn, `CC(=O)Oc1ccccc1C1CCC(=O)CC1` returned a melting point of 86 to 87 °C.
With `CCOC(=O)[C@H](Cc1ccc(-c2c(OC)cc(CO)cc2OC)cc1)NC(=O)c1c(F)cccc1F` the figure was 70 to 72 °C; with `O=C(NCCn1ccnc1)c1cc2cc(Cl)ccc2[nH]1`, 167 to 169 °C; with `CCCOc1ccc(Br)c(C(=O)C=Cc2ccc3c(c2)OCO3)c1`, 80 to 82 °C.
The compound `CC(C)c1nsc(N=C(Br)N(C)C)c1C#N` came in with a melting point of 92 to 96 °C.
For `CCc1ccc(-n2c(-c3ccc(SC)cc3)nc(SC)c(C#N)c2=O)cc1`, the melting point lay within 223 to 225 °C.
Compound `CC(C)(C)[Si](C)(C)Oc1ccc(C(=O)Oc2ccc(C(=O)O)cn2)cc1C12CC3CC(CC(C3)C1)C2` returned a melting point of 188 to 190 °C.
`C=CCNc1cc(Oc2ccccc2)c(Cl)cc1[N+](=O)[O-]` yielded a melting point of 81 to 82 °C.
`O=[N+]([O-])c1cc(Cl)c(N=C2NCCCN2)c(Cl)c1` returned a melting point of 265 °C.
Turning to `COC(=O)c1cccc(-c2nc(COc3ccc(COc4nn(-c5ccccc5)cc4C=O)cc3)c(C)o2)c1`, the melting point was in the range of 161 to 162 °C.
Regarding `Cc1c(NC(=O)c2ccc(OCC3CCCO3)cc2)ccc2cc(CNCC(C)(C)O)cnc12` (configuration not stated), the melting point worked out at 138 °C.
`CCCCc1c(CO)nc2ccccc2c1OCc1ccc(-c2ccccc2C(=O)O)cc1` displayed a melting point of 174 °C.
With `CCOc1nn(-c2ccc(C(F)(F)F)cn2)cc1CCCOc1cc(CCC(=O)O)n(C)n1`, the melting point lay in the range of 137 to 138 °C.
On to `CC(C)c1cccc(C(C)C)c1OCC(=O)O`, for which the melting point fell in the range of 84 to 87 °C.
`Cc1cc(C(=O)NN=C(N)CS(=O)(=O)c2ccccc2)oc1C` showed a melting point of 197 to 199 °C.
Compound `Cc1ccc2c(c1)Cc1c(C(=O)C(C#N)C(=O)Nc3ccccc3)nn(-c3ccccc3)c1-2` (configuration not stated) had a melting point of 249 to 251 °C.
To `O=C(NC[C@H]1O[C@H]1c1ccccc1)c1ccc(NC(=O)C(F)(F)F)cc1` (racemic) belongs 190 °C.
For the compound `O=C(O)COc1ccc(C(=C2CCCCCC2)c2ccc(O)cc2)cc1`, the melting point lay within 170 to 171 °C.
Regarding `COCN1C(=O)C(=C/c2ccccc2)/C(=C\c2cc(OC)c(OC)c(OC)c2)C1=O`, the melting point lay in the range of 127 to 128 °C.
To `O=C1CCCN1[C@@H]1c2cc(C(F)(F)C(F)(F)C(F)(F)F)ccc2OC(CF)(CF)[C@H]1O` (relative stereo) belongs 174 to 175 °C.
With `CCCCC(C)c1ccc(C=Cc2cc3cc4ccccc4cc3s2)cc1` (configuration not stated) the figure was 280 to 282 °C.
Turning to `COc1cc2c(cc1OC)C(C=Cc1ccc(Br)cc1)=NN=C(C)C2`, the melting point was 156 to 158 °C.
With `Cc1c(-c2ccc(OC(F)(F)F)cc2)[nH]c2ccc(OCc3ccccc3)cc12`, the melting point was 127 to 128 °C.
Compound `CCCCC1SCC(C(=O)OC(C)(C)C)N1C(=O)CNC(=O)NCC(C(=O)O)c1ccccc1` (configuration not stated) displayed a melting point of 102 °C.
`Cc1ccccc1-c1nnc(N2CCC(O)CC2)nc1-c1ccccc1C` yielded a melting point of 155 to 156 °C.
`COCc1cc(OCc2ccccc2)c2nc(C)n(C)c2c1` gave a melting point of 113 °C.
The compound `CN(CC(=O)O)c1cc(Br)ccc1[N+](=O)[O-]` displayed a melting point of 152 to 155 °C.
With `CCN1C(=O)CCc2cnc(Nc3ccccc3)cc21` the figure was 137 to 138 °C.
With `COc1cc(COc2nn(C)cc2C=O)ccc1OCc1nc(-c2ccccc2)oc1C`, the melting point was 123 to 124 °C.
As for `OC[C@@H]1Cc2ccccc2CN1C(=S)Nc1cccc2cnccc12`, the melting point worked out at 190 °C.
With `Cn1nc(-c2c(F)cccc2Cl)nc1-c1cccc([N+](=O)[O-])c1Cl` the figure was 112 to 114 °C.
For the compound `COC(=O)C(CCSC)NC(=O)c1ccc(NCC2CC(O[Si](C)(C)C(C)(C)C)CN2C(=O)OC(C)(C)C)cc1-c1ccccc1` (configuration not stated), the melting point came to 48 °C.
In the case of `Cn1ccc(S(N)(=O)=O)n1`, the melting point is 156 to 158 °C.
To `Cc1nc(O)c([N+](=O)[O-])c(N2CCc3cncnc3CC2)n1` belongs over 200 °C; to `COc1ccc(C(=O)c2c[nH]c(Cc3ccccc3)n2)cc1`, 108 to 110 °C; to `CC(C)(C)OC(=O)N1CCN(c2ccc(-c3[nH]nc4c3C(=O)c3c(NC(=O)NN5CCOCC5)cccc3-4)cc2)CC1`, 242 °C.
Compound `O=C1CCOc2ccc(OCc3ccc4ccccc4n3)cc21` registered a melting point of 112 to 114 °C.
On to `CC(C)(C)OC(=O)C1CC1c1ccc(-c2ncn(-c3ccc(OC(F)(F)F)cc3)n2)cc1` (configuration not stated), for which the melting point lay in the range of 100 to 101 °C.
Compound `O=C1Nc2ccc(Br)cc2C1c1ncnc2c1cnn2C1CCCC1` (configuration not stated) displayed a melting point of 287 to 290 °C.
With `COc1ccc(S(=O)(=O)n2ccc3ccnc(-c4ccc(N(C)C)cc4)c32)cc1`, the melting point was 112 to 114 °C.
Consider `O=c1c2c(Cc3cccs3)n[nH]c2c2cccnc2n1-c1ccccc1`, for which the melting point fell in the range of 282 to 284 °C.
The compound `CCOC(=O)Nc1cc2c(cn1)[nH]c1ccccc12` showed a melting point of 222 to 224 °C.
`CC(=O)OC1CSC(Oc2ccc(-c3ccc(CO)cc3)nc2)C(OC(C)=O)C1OC(C)=O` (configuration not stated) yielded a melting point of 157 °C.
As to `CN(C)CCOc1ccc(C(=C(c2ccccc2)C(F)(F)F)c2ccc(O)cc2)cc1`, the melting point was in the range of 149 to 155 °C.
With `CCOC(=O)C(Cc1ccccc1[N+](=O)[O-])(NC=O)C(=O)OCC` the figure was 129 to 132 °C; with `CCOC(=O)C(=O)c1oc2cc(C)ccc2c1O`, 113 to 115 °C; with `Cc1noc(NS(=O)(=O)c2ccccc2-c2ccc(-c3ncco3)cc2Cc2ncc(-c3ccccc3)o2)c1C`, 120 to 128 °C.
